Holding throughout (test): DTP human tumour cell line panel, 48 h
The subject of experiment [1] is BT-549 breast.
The subject of experiment [2] is HCC-2998 colon.
Experiment [3] relates to HCT-116 colon.
Experiment [4] concerns MDA-MB-435.
Experiment [5] has as its system NCI-H23 lung.
In experiment [6] the test system is OVCAR-3 ovarian.
Experiment [7] relates to SK-MEL-2 melanoma.
For experiment [8], the system named is SNB-19 CNS.
Experiment [9] concerns SR leukemia.
For experiment [10], the system named is U251 CNS.

Where “and” joins values, the source holds several entries; their conditions need not be identical. Equal values may be shown once.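 Compound exposure: 48 hours, 5 concentrations, 96-well plates. GI50 = concentration required for 50% inhibition of growth. TGI marks complete inhibition of growth.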 Some results are limits rather than exact numbers.

Broadly, the TGI is the concentration at which net growth stops. Take `O=C(Nc1ccccn1)c1cc2c(cc1Cl)Sc1nccn1S2(=O)=O`: the TGI was > 100 µM in [1]; 30.9 µM in experiment [2]; > 100 µM in experiment [3]; > 100 µM in experiment [4]; 82.6 µM in [5]; > 100 µM in experiment [6]. In addition, the TGI in experiment [7] was 48.8 µM; in experiment [8], > 100 µM; in [9], > 100 µM; in [10], > 100 µM.

For the compound `CC1=NN(c2cccc(S(=O)(=O)O)c2)C2(C1)SCC(=O)N2c1nc2ccccc2s1` (configuration not stated), the TGI in [1], in experiment [2], in experiment [3], in experiment [4], in experiment [5] and in experiment [6] was > 100 µM each time. Also, the TGI in experiment [7], in experiment [8], in experiment [9] and in [10] was > 100 µM in each case.

With `COC(=O)/C=C/[C@H]1[C@H](C)N1S(=O)(=O)c1ccc(C)cc1` (some centres not stated), the TGI in [1], in experiment [2], in experiment [3], in [4], in experiment [5] and in experiment [6] was > 100 µM throughout. Further, the TGI in experiment [7], in [8], in [9] and in experiment [10] was > 100 µM each time.

On to `O=C1C=C(NCCc2ccc(O)cc2)C(=O)C=C1NCCc1ccc(O)cc1`, for which the TGI in experiment [1], in experiment [2], in experiment [3], in experiment [4], in experiment [5] and in experiment [6] was > 100 µM each time. Also, the TGI in experiment [7] was > 100 µM; in [8] it was > 100 µM; in [9], > 100 µM; in experiment [10], 92.5 µM.

On to `CCOC(=O)C1=CN(Cc2ccccc2)C2ON=C(c3ccc(Cl)cc3)C2C1` (configuration not stated), for which the TGI in [1] was > 56.4 µM; in experiment [2] it was > 100 µM; in [3], > 61.9 µM; in experiment [4], > 79.5 µM; in [5] it was > 66.8 µM; in [6] it was > 67.1 µM. The total growth inhibition concentration (TGI) was 38.6 µM in [7], > 100 µM in [8], 97.4 µM in experiment [9] and 30.7 µM in experiment [10].

In general, GI50 refers to the concentration giving 50% growth inhibition. Turning to `COC(=O)/C=C/c1cc(OC)c2c(c1)C(C(=O)OC)C(c1ccc(O)c(OC)c1)O2` (configuration not stated), the GI50 is 4.54 µM and 1.87 µM and 18.2 µM in [1]; 24.5 µM and 10.6 µM and 5.69 µM in [2]; 4.22 µM and 3.67 µM and 1.1 µM in [3]; 1.13 µM and 0.259 µM in experiment [4]; 4.97 µM and 3.89 µM and 2 µM in experiment [6]; 3.16 µM and 3.87 µM and 9.94 µM in experiment [7]. Moreover, the GI50 in [8] is 4.15 µM and 4.27 µM and 9.01 µM. Moreover, the TGI is > 42.3 µM and 18.9 µM and > 90.5 µM in experiment [1]; 48.4 µM and 25.6 µM and 21 µM in [2]; > 100 µM and > 46.7 µM and 19.7 µM in [3]; 4.49 µM and 1.32 µM in experiment [4]; > 100 µM and 13 µM and 56.5 µM in experiment [5]; > 27 µM and > 25.6 µM and 19.8 µM in [6]. For the same compound, the TGI is > 82.2 µM in [7]; > 100 µM in experiment [8]; > 25.7 µM and 3.91 µM in experiment [9]; > 45 µM and > 54.2 µM and 48.3 µM in [10].

`ClC1(Cl)C2CCOC21n1cnc2ccccc21` (configuration not stated): the TGI in experiment [1], in [2], in [3], in experiment [4], in experiment [5] and in experiment [6] was > 100 µM each time. For the same compound, the TGI in experiment [7], in experiment [8], in [9] and in [10] was > 100 µM each time.

`FC(F)(F)c1ccc(N=NN2CCCC2)cc1`: the TGI in [1], in experiment [2], in [3], in experiment [4], in [5] and in experiment [6] was > 100 µM throughout. For the same compound, the TGI in [7], in experiment [8], in experiment [9] and in experiment [10] was > 100 µM in each case.

As to `CCOC1=NC(C(F)(F)F)(C(F)(F)F)N=C(/N=C(/N)N(C)C(C(C)C)P(=O)(OC(C)C)OC(C)C)O1` (configuration not stated), the TGI in [1], in experiment [2], in experiment [3], in experiment [4], in experiment [5] and in experiment [6] was > 100 µM in each case. In addition, the TGI in experiment [7], in experiment [8], in [9] and in experiment [10] was > 100 µM in each case.

For the compound `CC(=O)Nc1ccc2cc3c(nc2n1)c1cccnc1n3S(=O)(=O)c1ccccc1`, the TGI in experiment [1], in experiment [2], in experiment [3], in experiment [4], in [5] and in experiment [6] was > 100 µM throughout. The TGI in experiment [7], in experiment [8], in [9] and in experiment [10] was > 100 µM each time.

In the case of `C[C@H](N)C(=O)Nc1ccc(-c2nc3ccccc3s2)cc1Cl`, the TGI came out at 36 µM in experiment [1]; 17.9 µM in [2]; 24.5 µM in [3]; 28.7 µM in experiment [4]; 39.2 µM in [5]; 19.2 µM in [6]. Also, the TGI in experiment [7] was found to be 30.5 µM; in experiment [8], 30.4 µM; in experiment [9], 13.9 µM; in experiment [10] it was 29.1 µM.

Turning to `CC(C)N=C(NC#N)NS(=O)(=O)c1cnccc1NC1CCCCCCC1`, the TGI in experiment [1], in experiment [2], in experiment [3], in experiment [4], in experiment [5] and in experiment [6] was > 100 µM in each case. Moreover, the TGI in experiment [7], in experiment [8], in [9] and in [10] was > 100 µM each time.

Take `COc1ccc(-c2nc3ccccc3c(=O)[nH]2)cc1OC`: the TGI in experiment [1], in experiment [2], in experiment [3], in [4], in experiment [5] and in experiment [6] was > 100 µM in each case. The TGI in experiment [7] is > 100 µM; in [8], 79 µM; in [9] it was > 100 µM; in [10], 80.5 µM.
